SMILES strings stand for the structures.

The record followed here is ChEMBL document CHEMBL3046125, “Design and synthesis of niflumic acid-based N-acylhydrazone derivatives as novel anti-inflammatory and analgesic agents” (2013).

Common to all, as to type: functional
The test system of assay [1] is Rattus norvegicus. As to the kind of experiment: Anti-inflammatory activity in Wistar Rattus norvegicus (rat) assessed as inhibition of carrageenan-induced paw edema at 10 mg/kg, ip measured after 3 hr. Particulars: route intraperitoneal.
The subject of assay [2] is Rattus norvegicus. As to the kind of experiment: Anti-inflammatory activity in Wistar Rattus norvegicus (rat) assessed as inhibition of carrageenan-induced paw edema at 10 mg/kg, ip measured after 4 hr. Conditions: route intraperitoneal.
Assay [3] relates to Rattus norvegicus. As to the kind of experiment: Anti-inflammatory activity in Wistar Rattus norvegicus (rat) assessed as inhibition of carrageenan-induced paw edema at 10 mg/kg, ip measured after 2 hr. Conditions: route intraperitoneal.
The test system of assay [4] is Rattus norvegicus. As to the kind of experiment: Anti-inflammatory activity in Wistar Rattus norvegicus (rat) assessed as inhibition of carrageenan-induced paw edema at 10 mg/kg, ip measured after 1 hr. Particulars: route intraperitoneal.
Assay [5] relates to Rattus norvegicus. As to the kind of experiment: Anti-inflammatory activity in Wistar Rattus norvegicus (rat) assessed as inhibition of carrageenan-induced paw edema at 10 mg/kg, ip measured after 30 min. Conditions: 0.5 h, route intraperitoneal.
The next assay deals with Mus musculus. As to the kind of experiment: Analgesic activity in NMRI Mus musculus (mouse) assessed as inhibition of acetic acid-induced abdominal writhing at 10 mg/kg administered 30 min prior to acetic acid injection. Conditions: Abdomen.

Turning to `COc1cc(/C=N/NC(=O)c2cccnc2Nc2cccc(C(F)(F)F)c2)cc(OC)c1OC`, the inhibition in vivo at 10 mg/kg in the assay with Rattus norvegicus [1] was 28.5%; in the assay on Rattus norvegicus [2], 28.6%; in the assay with Rattus norvegicus [3] it was 40.6%; with Rattus norvegicus [4], 54.4%; with Rattus norvegicus [5] it was 55.9%.
In the case of `O=C(N/N=C/c1ccncc1)c1cccnc1Nc1cccc(C(F)(F)F)c1`, the inhibition in vivo at 10 mg/kg with Mus musculus was 85.6%; in the assay on Rattus norvegicus [1], 54.9%; in the assay with Rattus norvegicus [2], 45.9%; in the assay on Rattus norvegicus [3] it was 65.2%; in the assay with Rattus norvegicus [4] it was 70.2%; in the assay with Rattus norvegicus [5], 68.1%.
Turning to `CNc1ncccc1C(=O)N/N=C/c1cccc(OC)c1`, the inhibition in vivo at 10 mg/kg is 49.5% in the assay on Rattus norvegicus [1]; 42.2% with Rattus norvegicus [2]; 51.5% in the assay on Rattus norvegicus [3]; 64.6% in the assay with Rattus norvegicus [4]; 56.1% in the assay on Rattus norvegicus [5].
As for `COc1cccc(/C=N/NC(=O)c2cccnc2Nc2cccc(C(F)(F)F)c2)c1`, the inhibition in vivo at 10 mg/kg in the assay on Rattus norvegicus [1] was 30.3%; in the assay with Rattus norvegicus [2], 14.9%; with Rattus norvegicus [3], 49.7%; in the assay on Rattus norvegicus [4], 58.8%; with Rattus norvegicus [5], 52.8%.
For `COc1ccc(/C=N/NC(=O)c2cccnc2Nc2cccc(C(F)(F)F)c2)cc1OC`, the inhibition in vivo at 10 mg/kg in the assay with Mus musculus was 80.7%; with Rattus norvegicus [1] it was 44%; with Rattus norvegicus [2], 52.9%; with Rattus norvegicus [3] it was 49%; with Rattus norvegicus [4] it was 70%; with Rattus norvegicus [5] it was 60.1%.
On to `O=C(N/N=C/c1ccc(O)c(O)c1)c1cccnc1Nc1cccc(C(F)(F)F)c1`, for which the inhibition in vivo at 10 mg/kg with Rattus norvegicus [1] stood at 38.2%; in the assay on Rattus norvegicus [2], 21.1%; in the assay on Rattus norvegicus [3] it was 46.9%; in the assay on Rattus norvegicus [4] it was 50.8%; with Rattus norvegicus [5], 51.4%.
Taken in the same sequence, the figures for `O=C(N/N=C/c1ccc(F)cc1)c1cccnc1Nc1cccc(C(F)(F)F)c1` were 41.3%, 36.5%, 41.2%, 43.2% and 33.9%.
For the molecule `O=C(N/N=C/c1cccc(Cl)c1)c1cccnc1Nc1cccc(C(F)(F)F)c1`, the inhibition in vivo at 10 mg/kg with Mus musculus turned out to be 61.9%; in the assay with Rattus norvegicus [1], 55.2%; with Rattus norvegicus [2], 40.4%; in the assay with Rattus norvegicus [3], 63.5%; with Rattus norvegicus [4], 76.7%; in the assay with Rattus norvegicus [5] it was 77.8%.
On to `COc1ccc(/C=N/NC(=O)c2cccnc2Nc2cccc(C(F)(F)F)c2)c(OC)c1`, for which the inhibition in vivo at 10 mg/kg in the assay on Rattus norvegicus [1] came out at 24.1%; with Rattus norvegicus [2], 19.8%; with Rattus norvegicus [3], 44.7%; in the assay on Rattus norvegicus [4] it was 55.7%; in the assay on Rattus norvegicus [5], 37.8%.
In the same order, the values of `O=C(N/N=C/c1ccc(O)cc1)c1cccnc1Nc1cccc(C(F)(F)F)c1` are 59.5%, 61.6%, 68%, 70.5% and 59.2%.
Take `COc1ccc(/C=N/NC(=O)c2cccnc2Nc2cccc(C(F)(F)F)c2)cc1`: the inhibition in vivo at 10 mg/kg was found to be 97.4% with Mus musculus; 26.5% with Rattus norvegicus [1]; 14% in the assay on Rattus norvegicus [2]; 42.4% with Rattus norvegicus [3]; 59.4% with Rattus norvegicus [4]; 50.4% in the assay with Rattus norvegicus [5].
Regarding `CN(C)c1ccc(/C=N/NC(=O)c2cccnc2Nc2cccc(C(F)(F)F)c2)cc1`, the inhibition in vivo at 10 mg/kg with Rattus norvegicus [1] came to 39.5%; in the assay on Rattus norvegicus [2], 28.2%; in the assay on Rattus norvegicus [3] it was 51.4%; in the assay on Rattus norvegicus [4] it was 63.5%; in the assay with Rattus norvegicus [5], 61.3%.
Regarding `O=C(O)c1cccnc1Nc1cccc(C(F)(F)F)c1` [NIFLUMIC ACID], the inhibition in vivo at 10 mg/kg with Mus musculus was 68.3%; with Rattus norvegicus [1], 70.6%; with Rattus norvegicus [2], 52%; with Rattus norvegicus [3], 70.1%; in the assay on Rattus norvegicus [4], 70.4%; in the assay with Rattus norvegicus [5] it was 64.1%.
Consider `CNc1ncccc1C(=O)N/N=C/c1ccccc1`, for which the inhibition in vivo at 10 mg/kg with Rattus norvegicus [1] was 22.7%; in the assay on Rattus norvegicus [2], 14.8%; with Rattus norvegicus [3], 47.2%; in the assay with Rattus norvegicus [4], 67.6%; with Rattus norvegicus [5], 56.5%.
In the same order, the values of `O=C(N/N=C/c1ccc(Cl)cc1)c1cccnc1Nc1cccc(C(F)(F)F)c1` are 48.5%, 43.7%, 52.8%, 67.2% and 52.4%.
In the same order, the values of `CNc1ncccc1C(=O)N/N=C/c1ccc(Cl)cc1` are 22.4%, 18.2%, 54.1%, 54.7% and 46.5%.
In the case of `O=C(N/N=C/c1cccnc1)c1cccnc1Nc1cccc(C(F)(F)F)c1`, the inhibition in vivo at 10 mg/kg in the assay with Mus musculus is 51.4%; in the assay on Rattus norvegicus [1] it was 52.4%; in the assay with Rattus norvegicus [2] it was 36%; in the assay with Rattus norvegicus [3], 62.4%; in the assay with Rattus norvegicus [4], 76.1%; in the assay with Rattus norvegicus [5], 59.1%.
Regarding `CNc1ncccc1C(=O)N/N=C/c1cccnc1`, the inhibition in vivo at 10 mg/kg in the assay with Rattus norvegicus [1] was 27.7%; in the assay on Rattus norvegicus [2], 13.8%; with Rattus norvegicus [3], 43.7%; in the assay on Rattus norvegicus [4], 61.1%; with Rattus norvegicus [5] it was 66.3%.
For `CNc1ncccc1C(=O)N/N=C/c1ccncc1`, the inhibition in vivo at 10 mg/kg in the assay with Mus musculus is 90.6%; with Rattus norvegicus [1], 55%; with Rattus norvegicus [2], 15.5%; in the assay on Rattus norvegicus [3], 60.4%; with Rattus norvegicus [4], 80.4%; in the assay with Rattus norvegicus [5], 63.2%.
As for `O=C(N/N=C/c1ccccc1)c1cccnc1Nc1cccc(C(F)(F)F)c1`, the inhibition in vivo at 10 mg/kg was found to be 66.2% in the assay with Mus musculus; 21.2% in the assay on Rattus norvegicus [1]; 31% in the assay on Rattus norvegicus [2]; 36.8% in the assay on Rattus norvegicus [3]; 53.9% with Rattus norvegicus [4]; 60.4% in the assay on Rattus norvegicus [5].
As to `O=C(N/N=C/c1cccc(O)c1)c1cccnc1Nc1cccc(C(F)(F)F)c1`, the inhibition in vivo at 10 mg/kg with Rattus norvegicus [1] amounted to 49%; in the assay on Rattus norvegicus [2] it was 35.8%; in the assay with Rattus norvegicus [3], 65.4%; in the assay on Rattus norvegicus [4], 63.8%; in the assay on Rattus norvegicus [5], 67.5%.
As to `CNc1ncccc1C(=O)N/N=C/c1cccc(Cl)c1`, the inhibition in vivo at 10 mg/kg with Rattus norvegicus [1] was determined as 39.5%; in the assay on Rattus norvegicus [2], 40.4%; with Rattus norvegicus [3], 61.7%; with Rattus norvegicus [4], 68.6%; in the assay with Rattus norvegicus [5], 67.1%.
Taken in the same sequence, the figures for `O=C(N/N=C/c1cccc(F)c1)c1cccnc1Nc1cccc(C(F)(F)F)c1` were 37%, 29.8%, 52.8%, 51.5% and 58.2%.
